The values below come from ChEMBL document CHEMBL3044664, “Synthesis of coumarin-based 1,3,4-oxadiazol-2ylthio-N-phenyl/benzothiazolyl acetamides as antimicrobial and antituberculosis agents” (2013).

Converted amounts (≈) assume the structure as drawn.

The MIC is the lowest concentration found to suppress growth.

Format in all cases: functional
In test [1] the test system is Mycobacterium tuberculosis. The experiment in a line: Antitubercular activity against Mycobacterium tuberculosis H37Rv assessed as growth inhibition by BACTEC MGIT method.
The subject of the next test is Staphylococcus aureus. The test can be described thus: Antibacterial activity against Staphylococcus aureus MTCC 96 assessed as growth inhibition by agar streak dilution method.
Another test concerns Klebsiella pneumoniae. The test can be described thus: Antibacterial activity against Klebsiella pneumoniae MTCC 109 assessed as growth inhibition by agar streak dilution method.
The subject of the next test is Bacillus cereus. The experiment in a line: Antibacterial activity against Bacillus cereus MTCC 430 assessed as growth inhibition by agar streak dilution method.
For the next test, the system named is Aspergillus fumigatus. The experiment in a line: Antifungal activity against Aspergillus fumigatus MTCC 343 assessed as growth inhibition by agar streak dilution method.
For another test, the system named is Pseudomonas aeruginosa. The experiment in a line: Antibacterial activity against Pseudomonas aeruginosa MTCC 741 assessed as growth inhibition by agar streak dilution method.
For a further test, the system named is Candida albicans. The experiment in a line: Antifungal activity against Candida albicans MTCC 183 assessed as growth inhibition by agar streak dilution method.
The next test has as its system Aspergillus niger. The test can be described thus: Antifungal activity against Aspergillus niger MTCC 282 assessed as growth inhibition by agar streak dilution method.
The next test has as its system Aspergillus clavatus. The test can be described thus: Antifungal activity against Aspergillus clavatus MTCC 1323 assessed as growth inhibition by agar streak dilution method.
Another test relates to Escherichia coli. The experiment in a line: Antibacterial activity against Escherichia coli MTCC 739 assessed as growth inhibition by agar streak dilution method.
The test system of test [2] is Mycobacterium tuberculosis. The experiment in a line: Antitubercular activity against Mycobacterium tuberculosis H37Rv assessed as growth inhibition at MIC by Lowenstein-Jensen method.
A further test has as its system Salmonella typhi. The test can be described thus: Antibacterial activity against Salmonella enterica subsp. enterica serovar Typhi MTCC 733 assessed as growth inhibition by agar streak dilution method.
Test [3] relates to Mycobacterium tuberculosis. The experiment in a line: Antitubercular activity against Mycobacterium tuberculosis H37Rv assessed as growth inhibition by Lowenstein-Jensen method.
The next test relates to Proteus vulgaris. The test can be described thus: Antibacterial activity against Proteus vulgaris MTCC 1771 assessed as growth inhibition by agar streak dilution method.
The next test relates to Shigella flexneri. The experiment in a line: Antibacterial activity against Shigella flexneri MTCC 1457 assessed as growth inhibition by agar streak dilution method.

For the molecule `CC(=O)Nc1ccc2nc(NC(=O)CSc3nnc(-c4cc5ccccc5oc4=O)o3)sc2c1`, the MIC was more than 6.25 µg/mL in test [1]; 50 µg/mL (≈ 101 µM) with Staphylococcus aureus; 100 µg/mL (≈ 203 µM) in the test with Klebsiella pneumoniae; 100 µg/mL (≈ 203 µM) in the test with Bacillus cereus; more than 100 µg/mL with Aspergillus fumigatus; 12.5 µg/mL (≈ 25.3 µM) in the test with Pseudomonas aeruginosa. Moreover, the MIC is more than 100 µg/mL in the test on Candida albicans; 100 µg/mL (≈ 203 µM) in the test on Aspergillus niger; 12.5 µg/mL (≈ 25.3 µM) with Aspergillus clavatus; 100 µg/mL (≈ 203 µM) in the test on Escherichia coli; 100 µg/mL (≈ 203 µM) in the test on Salmonella typhi; 100 µg/mL (≈ 203 µM) in test [3]. For the same molecule, the MIC in the test with Proteus vulgaris is more than 100 µg/mL; with Shigella flexneri, 100 µg/mL (≈ 203 µM). The “growth inhibition (GI)” value in test [2] is 96%.

Consider `CC(=O)N1CCN(c2ccc(OCC3COC(Cn4ccnc4)(c4ccc(Cl)cc4Cl)O3)cc2)CC1` (stereo unspecified) [KETOCONAZOLE], for which the MIC was 0.78 µg/mL (≈ 1.47 µM) with Aspergillus fumigatus, 1.56 µg/mL (≈ 2.94 µM) in the test on Candida albicans, 1.56 µg/mL (≈ 2.94 µM) in the test on Aspergillus niger and 0.78 µg/mL (≈ 1.47 µM) in the test on Aspergillus clavatus.

Take `O=C(CSc1nnc(-c2cc3ccccc3oc2=O)o1)Nc1ccc(Br)cc1`: the MIC in test [1] was more than 6.25 µg/mL; in the test on Staphylococcus aureus, 50 µg/mL (≈ 109 µM); in the test on Klebsiella pneumoniae, 100 µg/mL (≈ 218 µM); in the test with Bacillus cereus, 12.5 µg/mL (≈ 27.3 µM); in the test on Aspergillus fumigatus it was 100 µg/mL (≈ 218 µM); with Pseudomonas aeruginosa, 50 µg/mL (≈ 109 µM). The MIC in the test on Candida albicans was 50 µg/mL (≈ 109 µM); in the test on Aspergillus niger, 50 µg/mL (≈ 109 µM); in the test on Aspergillus clavatus, 100 µg/mL (≈ 218 µM); with Escherichia coli it was 12.5 µg/mL (≈ 27.3 µM); in the test on Salmonella typhi it was 100 µg/mL (≈ 218 µM); in test [3], 62.5 µg/mL (≈ 136 µM). The MIC in the test with Proteus vulgaris and with Shigella flexneri was 100 µg/mL (≈ 218 µM) each time. Further, the “growth inhibition (GI)” value in test [2] is listed as 97%.

For the molecule `O=C(CSc1nnc(-c2cc3ccccc3oc2=O)o1)Nc1ccc(F)cc1`, the MIC is more than 6.25 µg/mL in [1]; 12.5 µg/mL (≈ 31.5 µM) in the test with Staphylococcus aureus; 100 µg/mL (≈ 252 µM) with Klebsiella pneumoniae; 50 µg/mL (≈ 126 µM) in the test on Bacillus cereus; 50 µg/mL (≈ 126 µM) in the test on Aspergillus fumigatus; 100 µg/mL (≈ 252 µM) in the test with Pseudomonas aeruginosa. In addition, the MIC came out at 25 µg/mL (≈ 62.9 µM) with Candida albicans; 50 µg/mL (≈ 126 µM) in the test on Aspergillus niger; 100 µg/mL (≈ 252 µM) in the test on Aspergillus clavatus; 50 µg/mL (≈ 126 µM) in the test with Escherichia coli; 50 µg/mL (≈ 126 µM) in the test on Salmonella typhi; 25 µg/mL (≈ 62.9 µM) in test [3]. In addition, the MIC with Proteus vulgaris amounted to 100 µg/mL (≈ 252 µM); in the test with Shigella flexneri, 50 µg/mL (≈ 126 µM). In addition, the “growth inhibition (GI)” value in test [2] is recorded as 99%.

`O=C(O)c1cn(C2CC2)c2cc(N3CCNCC3)c(F)cc2c1=O` [CIPROFLOXACIN]: the MIC in the test with Staphylococcus aureus was found to be 1.56 µg/mL (≈ 4.71 µM); in the test with Klebsiella pneumoniae, 0.78 µg/mL (≈ 2.35 µM); with Bacillus cereus it was 0.39 µg/mL (≈ 1.18 µM); in the test with Pseudomonas aeruginosa, 0.78 µg/mL (≈ 2.35 µM); in the test with Salmonella typhi, 0.39 µg/mL (≈ 1.18 µM); in the test with Proteus vulgaris, 0.39 µg/mL (≈ 1.18 µM). Besides, in the test with Shigella flexneri, the MIC is 1.56 µg/mL (≈ 4.71 µM).

Turning to `O=C(CSc1nnc(-c2cc3ccccc3oc2=O)o1)Nc1ccc([N+](=O)[O-])cc1`, the MIC is more than 6.25 µg/mL in test [1]; 100 µg/mL (≈ 236 µM) with Staphylococcus aureus; 100 µg/mL (≈ 236 µM) in the test on Klebsiella pneumoniae; 100 µg/mL (≈ 236 µM) in the test on Bacillus cereus; 50 µg/mL (≈ 118 µM) in the test on Aspergillus fumigatus; more than 100 µg/mL with Pseudomonas aeruginosa. The MIC in the test on Candida albicans was 12.5 µg/mL (≈ 29.5 µM); in the test with Aspergillus niger, 100 µg/mL (≈ 236 µM); with Aspergillus clavatus it was 100 µg/mL (≈ 236 µM); in the test with Escherichia coli it was 50 µg/mL (≈ 118 µM); in the test on Salmonella typhi, 100 µg/mL (≈ 236 µM); in [3], 500 µg/mL (≈ 1180 µM). The MIC in the test with Proteus vulgaris came out at 25 µg/mL (≈ 58.9 µM); with Shigella flexneri it was 100 µg/mL (≈ 236 µM). Besides, the “growth inhibition (GI)” value in [2] stood at 94%.

Turning to `O=C(CSc1nnc(-c2cc3ccccc3oc2=O)o1)Nc1nc2ccc(Cl)cc2s1`, the MIC in test [1] is more than 6.25 µg/mL; in the test with Staphylococcus aureus, 50 µg/mL (≈ 106 µM); with Klebsiella pneumoniae, 100 µg/mL (≈ 212 µM); in the test on Bacillus cereus, 6.25 µg/mL (≈ 13.3 µM); with Aspergillus fumigatus, 25 µg/mL (≈ 53.1 µM); with Pseudomonas aeruginosa, 100 µg/mL (≈ 212 µM). Moreover, the MIC was 100 µg/mL (≈ 212 µM) in the test on Candida albicans; 12.5 µg/mL (≈ 26.5 µM) with Aspergillus niger; 100 µg/mL (≈ 212 µM) with Aspergillus clavatus; 50 µg/mL (≈ 106 µM) with Escherichia coli; 50 µg/mL (≈ 106 µM) with Salmonella typhi; 62.5 µg/mL (≈ 133 µM) in [3]. For the same molecule, the MIC with Proteus vulgaris is 50 µg/mL (≈ 106 µM); in the test with Shigella flexneri, 25 µg/mL (≈ 53.1 µM). In test [2], the “growth inhibition (GI)” value amounted to 96%.

For the molecule `O=C(CSc1nnc(-c2cc3ccccc3oc2=O)o1)Nc1ccc(Cl)cc1`, the MIC in test [1] was more than 6.25 µg/mL; in the test on Staphylococcus aureus, 50 µg/mL (≈ 121 µM); in the test with Klebsiella pneumoniae, 100 µg/mL (≈ 242 µM); in the test on Bacillus cereus it was 25 µg/mL (≈ 60.4 µM); in the test on Aspergillus fumigatus, 25 µg/mL (≈ 60.4 µM); with Pseudomonas aeruginosa, 100 µg/mL (≈ 242 µM). Further, the MIC in the test with Candida albicans was found to be 50 µg/mL (≈ 121 µM); in the test with Aspergillus niger it was 25 µg/mL (≈ 60.4 µM); in the test on Aspergillus clavatus it was 100 µg/mL (≈ 242 µM); in the test on Escherichia coli it was 25 µg/mL (≈ 60.4 µM); in the test on Salmonella typhi, 100 µg/mL (≈ 242 µM); in test [3], 100 µg/mL (≈ 242 µM). Besides, the results for the MIC with Proteus vulgaris and in the test with Shigella flexneri were 100 µg/mL (≈ 242 µM) and 50 µg/mL (≈ 121 µM), respectively. The “growth inhibition (GI)” value in test [2] was found to be 96%.
